Reference: PMC8592419 (PLoS ONE, 2021)
≈ marks a conversion by molar mass, not a printed value. Where a SMILES comes first, the peptide text is derived from it.

Columns and labels:
[1] = system: human red blood cells (RBCs); assay: Hemolytic toxicity test; format: cell-based; conditions: for Hemolytic activities (%hemolysis): human RBCs, 1 h at 37°C, mean±SD of duplicates, two independent experiments
Protocol: For the hemolytic toxicity test, red blood cells (RBCs) from fresh blood samples of healthy volunteers were obtained by centrifugation at 1,000 rpm for 5 min. The cells were washed three times with sterile phosphate buffered saline (PBS) and adjusted into 1×10^8 cells/ml. AMPs were diluted with PPB in ranging from 6.25 to 400 μg/ml. Fifty microliters of the RBC suspensions and 50 μl of AMP solutions were added to 1.5 ml sterile microtubes, incubated for 1 h at 37°C and then centrifuged at 1,000 rpm for 5 min. The supernatants were transferred to new 96-well microtiter plates for measurement of the absorbance at 540 nm using a microplate reader. RBC suspensions treated with 2% (v/v) Triton X-100 and PBS solution were used as positive and negative controls. The percentages of hemolysis were calculated using the following formula: % of RBC lysis = 100 × [(Test—PBS) / (Positive control—PBS)]. All assays were performed in duplicate and two independent experiments.

[2] = system: clinical isolates of M. abscessus; assay: In vitro susceptibility of potential AMPs, 3 days, summary over isolates; format: cell-based, Mycobacterium abscessus; conditions: isolates MAB01 and MAB03
Protocol: (§1) Briefly, serial dilutions of the AMPs were prepared with potassium phosphate buffer (PPB) from the concentration range of 3.125 to 400 μg/ml and then 50 μl of each dilution were added to each 96-well plate. Colonies of the isolate were suspended and then further diluted in Mueller-Hinton broth to obtain a final concentration of 1×10^3 CFU/ml (optimized according to the available AMP stock concentration). Fifty microliters of this inoculum were added to each well of the plates. The plates were incubated for 3 days at 37°C. Plain media and bacterial suspensions without AMPs were used as negative and positive controls. The MIC values were read and recorded. All assays were performed in duplicate and two independent experiments.
(§2) For the in vitro antimicrobial susceptibility, the same protocol as described above was used. The culture plates were further incubated up to 3 days at 37°C. The MIC values were read and recorded.

[3] = system: M. abscessus clinical isolate MAB13; format: cell-based, M. abscessus subsp. massiliense; conditions: 3 days at 37°C
Protocol: as §1, §2

[4] = system: M. abscessus clinical isolate MAB02; format: cell-based, M. abscessus subsp. abscessus; conditions: 3 days at 37°C
Protocol: as §1, §2

[5] = system: M. abscessus clinical isolate MAB06; format: cell-based, M. abscessus subsp. abscessus; conditions: 3 days at 37°C
Protocol: as §1, §2

[6] = system: human peripheral blood mononuclear cells (PBMCs); assay: PBMC toxicity, trypan blue exclusion assay; format: cell-based; conditions: 1 h at 37°C, mean±SD of duplicates, two independent experiments
Protocol: For the toxicity of the potential AMPs to human peripheral blood mononuclear cells (PBMCs), the trypan blue exclusion assay was used. Fresh human PBMCs were prepared from blood samples of healthy volunteers using the Ficoll density gradient technique. The cells were centrifuged at 1,800 rpm for 20 min at 20°C and washed three times with PBS and adjusted with RPMI-1640 medium into 6.25×10^5 cells/ml. Fifty microliters of PBMC suspension and 50 μl of AMP solutions (6.25–400 μg/ml) were added to the 96-well microtiter plates and incubated for 1 h at 37°C. Then, 20 μl of the samples were mixed with 20 μl of 0.4% (w/v) trypan blue solution (0.81% NaCl and 0.06% (w/v) dibasic potassium phosphate) in microtubes and incubated for 3 min at room temperature. The PBMC suspensions treated with PBS were used as negative controls. PBMCs were counted using a dual-chamber hemocytometer under a light microscope. Viable and non-viable cells were counted under a microscope and the percentage of viable cells was calculated using the following formula: % of viable cells = [1.00 –([…] / Number of total cells)] × 100. All assays were performed in duplicate with two independent experiments.

[7] = system: M. abscessus clinical isolate MAB01; assay: In vitro antimicrobial susceptibility of potential AMPs, broth microdilution, 3 days; format: cell-based, M. abscessus subsp. abscessus; conditions: 3 days at 37°C
Protocol: as §1, §2

[8] = system: M. abscessus clinical isolate MAB09; assay: as above; format: cell-based, M. abscessus subsp. abscessus; conditions: 3 days at 37°C
Protocol: as §1, §2

[9] = system: M. abscessus clinical isolate MAB11; assay: as above; format: cell-based, M. abscessus subsp. abscessus; conditions: 3 days at 37°C
Protocol: as §1, §2

[10] = system: M. abscessus clinical isolate MAB08; assay: as above; format: cell-based, M. abscessus subsp. abscessus; conditions: 3 days at 37°C
Protocol: as §1, §2

[11] = system: M. abscessus clinical isolate MAB04; assay: as above; format: cell-based, M. abscessus subsp. abscessus; conditions: 3 days at 37°C
Protocol: as §1, §2

[12] = system: M. abscessus clinical isolate MAB05; assay: as above; format: cell-based, M. abscessus subsp. abscessus; conditions: 3 days at 37°C
Protocol: as §1, §2

[13] = system: M. abscessus clinical isolate MAB07; assay: as above; format: cell-based, M. abscessus subsp. abscessus; conditions: 3 days at 37°C
Protocol: as §1, §2

[14] = system: M. abscessus clinical isolate MAB10; assay: as above; format: cell-based, M. abscessus subsp. abscessus; conditions: 3 days at 37°C
Protocol: as §1, §2

[15] = system: M. abscessus clinical isolate MAB03; assay: as above; format: cell-based, M. abscessus subsp. abscessus; conditions: 3 days at 37°C
Protocol: as §1, §2

[16] = system: sixteen clinical Mab isolates; assay: 24-hour bactericidal activity assay, summary over isolates; format: cell-based, Mycobacterium abscessus; conditions: majority of the tested strains (10/16 isolates); equivalent of <50 μg/ml
Protocol: as §1
Potential AMPs from the screening assays were subjected to determine the 24-hour bactericidal activity assays (corresponding to the common time of administration) with sixteen clinical Mab isolates using the protocol as described above. To observe the early antimicrobial activities, the plates were incubated for 24 h at 37°C. The samples from each well were further diluted in 0.05% Tween 80 and inoculated on Mueller-Hinton agar. After incubation for 3 days at 37°C, the colony-forming units (CFUs) were counted and calculated for the percentage of killing using the following formula: % killing = 1 - (CFU sample/ CFU control) ×100.

[17] = system: Mab ATCC19977 strain; format: cell-based, Mycobacterium abscessus
Protocol: as §1

[18] = system: M. abscessus clinical isolate MAB16; assay: In vitro antimicrobial susceptibility of potential AMPs, broth microdilution, 3 days; format: cell-based, M. abscessus subsp. massiliense; conditions: 3 days at 37°C
Protocol: as §1, §2

[19] = system: M. abscessus clinical isolate MAB14; assay: as above; format: cell-based, M. abscessus subsp. massiliense; conditions: 3 days at 37°C
Protocol: as §1, §2

[20] = system: M. abscessus clinical isolate MAB15; assay: as above; format: cell-based, M. abscessus subsp. massiliense; conditions: 3 days at 37°C
Protocol: as §1, §2

[21] = system: M. abscessus clinical isolate MAB12; assay: as above; format: cell-based, M. abscessus subsp. massiliense; conditions: 3 days at 37°C
Protocol: as §1, §2

Question: Which results are given for `CC(C)C[C@H](NC(=O)[C@H](CCCCN)NC(=O)[C@H](CC(C)C)NC(=O)[C@H](CC(C)C)NC(=O)[C@H](CC(C)C)NC(=O)[C@H](CC(C)C)NC(=O)[C@H](CC(C)C)NC(=O)[C@H](CCCCN)NC(=O)[C@H](CC(C)C)NC(=O)[C@@H](N)CCCCN)C(=O)O` [KLK1] (H-KLKLLLLLKL-OH)?
Answer: Hemolytic activities (%hemolysis) ([1]; 6.25 µg/mL): 0.7±0.50%; Hemolytic activities (%hemolysis) ([1]; 12.5 µg/mL): 4.93±2.49%; Hemolytic activities (%hemolysis) ([1]; 25 µg/mL): 8.27±1.74%; Hemolytic activities (%hemolysis) ([1]; 50 µg/mL): 12.15±0.25%; Hemolytic activities (%hemolysis) ([1]; 100 µg/mL): 15.85±1.49%; Hemolytic activities (%hemolysis) ([1]; 200 µg/mL): 18.13±0.25%; Hemolytic activities (%hemolysis) ([1]; 400 µg/mL): 22.18±1.99%; hemolysis at the MICs level ([1]; at the MICs level, single figure of the abstract): 10.21%; MIC values after 3 days [2]: 20.93 to 41.85 µM; Antimicrobial peptides against M. abscessus isolates, MIC value [3]: >400 µg/mL; Antimicrobial peptides against M. abscessus isolates, MIC value [4]: >400 µg/mL; Antimicrobial peptides against M. abscessus isolates, MIC value [5]: >400 µg/mL; Viable cells of PBMCs (% viable cells) ([6]; 6.25 µg/mL): 102.52±5.04%; Viable cells of PBMCs (% viable cells) ([6]; 12.5 µg/mL): 100.00±2.95%; Viable cells of PBMCs (% viable cells) ([6]; 25 µg/mL): 92.70±4.41%; Viable cells of PBMCs (% viable cells) ([6]; 50 µg/mL): 94.34±2.80%; Viable cells of PBMCs (% viable cells) ([6]; 100 µg/mL): 91.68±8.42%; Viable cells of PBMCs (% viable cells) ([6]; 200 µg/mL): 65.81±4.51%; Viable cells of PBMCs (% viable cells) ([6]; 400 µg/mL): 44.62±7.22%; Antimicrobial peptides against M. abscessus isolates, MIC value [7]: 25 µg/mL; Antimicrobial peptides against M. abscessus isolates, MIC value [8]: >400 µg/mL; Antimicrobial peptides against M. abscessus isolates, MIC value [9]: >400 µg/mL; Antimicrobial peptides against M. abscessus isolates, MIC value [10]: >400 µg/mL; Antimicrobial peptides against M. abscessus isolates, MIC value [11]: >400 µg/mL; Antimicrobial peptides against M. abscessus isolates, MIC value [12]: >400 µg/mL; Antimicrobial peptides against M. abscessus isolates, MIC value [13]: >400 µg/mL; Antimicrobial peptides against M. abscessus isolates, MIC value [14]: >400 µg/mL; Antimicrobial peptides against M. abscessus isolates, MIC value [15]: 50 µg/mL; MIC with ~99% killed within 24 h [16]: < 41.85 µM; MIC values [17]: 400 µg/mL (≈ 335 µM); Antimicrobial peptides against M. abscessus isolates, MIC value [18]: >400 µg/mL; Antimicrobial peptides against M. abscessus isolates, MIC value [19]: >400 µg/mL; Antimicrobial peptides against M. abscessus isolates, MIC value [20]: >400 µg/mL; Antimicrobial peptides against M. abscessus isolates, MIC value [21]: >400 µg/mL
